PMC5237291, “Sigma-2 receptor agonist derivatives of 1-Cyclohexyl-4-[3-(5-methoxy-1,2,3,4-tetrahydronaphthalen-1-yl)propyl]piperazine (PB28) induce cell death via mitochondrial superoxide production and caspase activation in pancreatic cancer” (BMC Cancer, 2017)
Like-named read-outs stand apart in the source and are kept apart here.

Tests used:
[1] = test system: Panc02 cells; assay: MTT cell viability, Panc02; assay type: cell-based; conditions: Mus musculus, 24 h treatment, viability relative to vehicle
Protocol: (§1) Determination of cell growth was performed using the MTT assay at 24 h. On day 1, pancreatic cancer cell lines were plated at a density of 2 × 10^4 cells/well in black clear-bottom 96-well plates for 24 h prior to treatment in a volume of 100 μL. On day 2, the cells were treated for 24 h with the various drugs concentration (1 μM-100 μM). Untreated cells served as a control. The various drug-solvents (EtOH, DMSO) were added in each control to evaluate a possible solvent cytotoxicity. After the established incubation time with drugs (24 h), MTT (0.5 mg/ml) was added to each well, and after 3–4 h incubation at 37 °C, the supernatant was removed. The formazan crystals were solubilized using 100 μl of DMSO/EtOH (1:1) and the absorbance values at 570 and 630 nm were determined on the multi-mode microplate reader (BioTek instruments, Winooski, VT). Different drug concentrations were assayed in triplicates.
(§2) Statistical analyses and data plotting were performed using GraphPad Prism software version 6.03 (San Diego, CA). Results were expressed as mean ± standard error of the mean of at least 3 biological replicates. EC50 values were calculated by curve fitting normalized viability versus drug concentration. Differences in viability, caspase-3 activity, and tumor volume were analyzed using two-way ANOVA to identify differences and confirmed with paired two tailed t-tests. Mann-Whitney test was used to compare the difference in CBC and biochemistry analyses. Kaplan-Meier survival analyses were used to assess differences between treatment groups and were compared using a log-rank test. A p-value < 0.05 was considered significant for all analyses.

[2] = biological target: sigma-2 receptor; conditions: ref Berardi, read-out: Affinity (Ki) σ2, cited from earlier work
[3] = test system: AsPC-1 cells; assay: MTT cell viability, AsPC-1; assay type: cell-based; conditions: Homo sapiens, ASPC1, 24 h treatment, viability relative to vehicle
Protocol: as §1, §2

[4] = Toxicity evaluation on mice not bearing tumor (CBC, serum chemistry, pathology); assay type: in vivo, C57BL/6 mice; conditions: for Off-target effects by necropsy and laboratory evaluations: naïve C57BL/6 mice, continuous daily treatment; for Creatinine: control 0.34 ± 0.02; for RBC: control 7.14 ± 0.1; for WBC: control 10.58 ± 0.2; for HGB: control 10.7 ± 0.7; for MCH: control 15 ± 0.54; for BUN: control 27 ± 0.4; for MCHC: control 29.2 ± 1.21; for HCT: control 36.6 ± 0.08; for MCV: control 51.2 ± 0.32; for ALT: control 260 ± 21; for Platelets: control 486 ± 67; for Glucose: control 62 ± 12.5
Protocol: […] Mice from each treatment cohort were assessed for pathologic evaluation (Digestive Diseases Research Core Center at our institution). Blood was collected for complete blood count (CBC) and biochemical analysis (AST, ALT, BUN, total protein, glucose and Cr). Organs were examined grossly and histologically.

[5] = test system: KCKO cells; assay: MTT cell viability, KCKO; assay type: cell-based; conditions: Mus musculus, 24 h treatment, viability relative to vehicle
Protocol: as §1, §2

[6] = test system: caspase-3; assay: Caspase-Glo caspase-3 activity in Panc02 cells; assay type: cell-based, mouse; conditions: for Caspase-3 activation (in words): compared to DMSO control
Protocol: Caspase-3 activity was measured in Panc02 cell lines with a Caspase-Glo® Assay Systems (Promega) according to protocol in which the reagent contain luminogenic caspase substrates that cleaved by activated caspase. […] The contents were then mixed using plate shaker for 30 s, and incubated at room temperature for 90 min. Luminescence signal was measured using multi-mode microplate reader (BioTek). Assay was performed in triplicates, and caspase activity was plotted compared cells treated with DMSO as a control.

[7] = test system: BxPC3 cells; assay: MTT cell viability, BxPC3; assay type: cell-based, human; conditions: Homo sapiens, BXPC-3, 24 h, 24 h treatment, viability relative to vehicle
Protocol: as §1, §2

[8] = test system: MIAPaCa-2 cells; assay: MTT cell viability, MIAPaCa-2; assay type: cell-based; conditions: Homo sapiens, MIA PaCa-2, 24 h treatment, viability relative to vehicle
Protocol: as §1, §2

[9] = test system: Panc-1 cells; assay: MTT cell viability, Panc-1; assay type: cell-based; conditions: Homo sapiens, 24 h treatment, viability relative to vehicle
Protocol: as §1, §2

[10] = test system: Panc02 tumors; assay: In vivo tumor growth and survival, Panc02 tumors in C57BL/6 mice; conditions: for Effect on tumor volume (in words) / Mean tumor volume following conclusion of treatment: Panc02 s.c. in female C57BL/6; for Effect on tumor volume (in words): daily i.p. treatment, compared to vehicle or gemcitabine; for Mean tumor volume following conclusion of treatment: i.p. daily for two weeks (gemcitabine once weekly), vehicle mean = 924 mm^3
Protocol: In this pre-clinical model, we utilized the Panc02 cell line, which is weakly immunogenic in C57BL/6 mice and aggressive with a subcutaneous inoculum of 1 × 10^5 cells being lethal within 6–8 weeks. In vivo studies with mice were performed to compare the effect of sigma-2 ligands with gemcitabine. Mice treated with vehicle alone (a mixture of 5% DMSO, 5% EtOH, and 10% Cremophor in H2O) served as the control cohort. Female C57BL/6 mice (10 weeks old, National Cancer Institute Laboratories) were injected in the right flank with 200 μL of a single-cell suspension of Panc02 cells in non-supplemented RPMI medium (1 × 10^6 cells per mouse). Treatment began when the mean tumor diameter was ~ 5 mm. […] Tumors were measured three times weekly in two dimensions with a digital caliper, and tumor volumes were calculated by the standard formula of Tumor Volume = Length x Width^2 × 0.5. All mice were euthanized when tumors reached a diameter of 15 mm or had ulcerated.

[11] = test system: Panc02 cells; assay: ROS interference in cell viability (MTT with antioxidants); assay type: cell-based, mouse; conditions: 24 h; for Protection against sigma-2 ligand induced cell death (Panc02 viability): antioxidant 100 μM one hour prior to sigma-2 ligands 50 μM
Protocol: The interference of ROS in cell viability was indirectly determined by MTT assay reported above at 24 h. On day 1, Panc02 cells were plated at a density of 2 × 10^4 cells/well in opaque 96-well, clear-bottom plates 24 h prior to treatment. On day 2, cells were treated with the drugs (50 μM) in the presence or absence of α-tocopherol (100 μM) or N-Acetyl-L-cysteine (100 μM). After incubation (24 h) with drugs, MTT assay was performed as above.

[12] = test system: KP02 cells; assay: MTT cell viability, KP02; assay type: cell-based, mouse; conditions: Mus musculus, 24 h, 24 h treatment, viability relative to vehicle
Protocol: as §1, §2

[13] = test system: Panc02 cells; assay: MitoSOX Red mitochondrial superoxide by flow cytometry, Panc02; assay type: cell-based, mouse; conditions: all pancreatic cancer cell lines tested (Panc02, AsPC-1, KP02, BxPC3); sigma-2 ligands 50 μM, 2 h, with α-tocopherol
Protocol: MitoSOX™ Red reagent is a novel fluorogenic dye specifically targeted to mitochondria in live cells. Oxidation of MitoSOX™ Red reagent by superoxide produces red fluorescence. Mitochondrial superoxide is generated as a byproduct of oxidative phosphorylation. […] MitoSOX™ Red reagent is readily oxidized by superoxide but not by other ROS- or reactive nitrogen species (RNS)–generating systems. Panc02, AsPC-1, KP-2 or BxPC3 cells were seeded into 12-well plates 24 h before treatment with sigma-2 ligands (50 μM) for 2 h at 37°C in presence or absence of α-tocopherol (100 μM) followed by staining with MitoSOX™ Red (5 μM). Two hours after red dye addition, the cells were washed twice with PBS and harvested with trypsin/EDTA buffer. The cells were washed twice with PBS before analysis with FACSCalibur (BD Bioscience, San Jose, CA). The oxidation product of MitoSOX™ Red by mitochondrial superoxide fluoresces with an emission maximus of 580 nm and was detected in the FL3 channel. Experiment was performed in triplicates.

[14] = not tumor-bearing C57BL/6 mice, n = 3, daily i.p., 5 days

SMILES | EC50 [1] | EC50 [3] | Off-target effects by necropsy and laboratory evaluations [4] | Creatinine [4, 14] | RBC [4, 14] | WBC [4, 14] | HGB [4, 14] | MCH [4, 14] | BUN [4, 14] | MCHC [4, 14] | HCT [4, 14] | MCV [4, 14] | ALT [4, 14] | Platelets [4, 14] | EC50 [5] | EC50 [7] | EC50 [8] | EC50 [9] | Effect on tumor volume (in words) [10] | EC50 [12] | also measured
COc1cccc2c(CCCN3CCN(C4CCCCC4)CC3)cccc12 [PB183, 1-Cyclohexyl-4-[3-(5-methoxynaphthalen-1-yl)propyl]-piperazine] | 83 µM | > 100 µM | no major off-target effects | 0.37 ± 0.04 mg/dL | 9.24 ± 0.9 10^6/μL | 6.42 ± 1.22 10^3/μL | 14.85 ± 1.35 g/dL | 16.1 ± 0.1 pg | 21 ± 2 mg/dL | 30.4 ± 0.7% | 48.8 ± 3.3% | 52.9 ± 1.6 fL | 203 ± 34 μ/L | 727.5 ± 65.5 10^3/μL | 51 µM | 100 µM | 49 µM | > 100 µM | not effective | 97 µM | Ki ([2]; et al. 2004 [25]): 0.00924 µM; AST ([4]; not tumor-bearing C57BL/6 mice, n = 3, daily i.p., 5 days, control 5.6 ± 0.05): 5.4 ± 0.5 μ/L; Caspase-3 activation (in words) ([6]; 200 μM, 5 h): little effect; Cell death on co-treatment with NAC ([11]; Panc02 cells, ligand 50 μM with NAC 100 μM): even higher levels of cell death
Nc1ccn([C@@H]2O[C@H](CO)[C@@H](O)C2(F)F)c(=O)n1 [gemcitabine, Gemcitabine, reference compound] | – | – | – | – | – | – | – | – | – | – | – | – | – | – | – | – | – | – | – | – | Mean tumor volume following conclusion of treatment [10]: 395 mm^3
COc1cccc2c1CCCC2CCCN1CCN(C2CCCCC2)CC1 (centres unmarked) [PB28, 1-Cyclohexyl-4-[3-(5-methoxy-1,2,3,4-tetrahydronaphthalen-1-yl)propyl] piperazine] | 43 µM | > 100 µM | no major off-target effects | 0.37 ± 0.04 mg/dL | 10.24 ± 0.3 10^6/μL | 11.11 ± 1.97 10^3/μL | 15.65 ± 0.55 g/dL | 15.3 ± 0.1 pg | 32 ± 1 mg/dL | 29.3 ± 0.2% | 53.4 ± 1.5% | 52.15 ± 0.05 fL | 249 ± 9 μ/L | 643.5 ± 95.5 10^3/μL | 87 µM | > 100 µM | 51 µM | > 100 µM | decreased tumor volume similar to gemcitabine alone | > 100 µM | Ki ([2]; et al. 2009 [26]): 0.00068 µM; Glucose [4, 14]: 92.5 ± 22.5 mg/dL; Caspase-3 activation (in words) ([6]; 200 μM, 5 h): did not activate at all; Mean tumor volume following conclusion of treatment [10]: 369 mm^3; Median survival ([10]; Panc02 tumor-bearing C57BL/6 mice, treatment discontinued on day 15, DMSO (vehicle) 23 days): 27 days
CC(=O)N[C@@H](CS)C(=O)O [N-acetyl-L-cysteine (NAC), N-Acetyl-L-cysteine, reference compound] | – | – | – | – | – | – | – | – | – | – | – | – | – | – | – | – | – | – | – | – | Protection against sigma-2 ligand induced cell death (Panc02 viability) [11]: did not
COc1cccc2c1CCCC2CCCN1CCC(C2CCCCC2)CC1 (centres unmarked) [PB221, 4-Cyclohexyl-1-[3-(5-methoxy-1,2,3,4-tetrahydronaphthalen-1-yl-propyl)]piperidine] | 37 µM | > 100 µM | no major off-target effects | 0.35 ± 0.03 mg/dL | 9.59 ± 0.71 10^6/μL | 8.12 ± 0.14 10^3/μL | 14.7 ± 0.8 g/dL | 15.35 ± 0.35 pg | 30.5 ± 3.5 mg/dL | 29.25 ± 0.55% | 50.35 ± 3.75% | 52.5 ± 0.02 fL | 219 ± 5 μ/L | 563 ± 17 10^3/μL | 19 µM | 100 µM | 50 µM | > 100 µM | did not confer a significantly different tumor volume than vehicle alone | > 100 µM | Ki ([2]; et al. 2009 [26]): 0.0188 µM; Glucose [4, 14]: 64.5 ± 7.5 mg/dL; Increase of caspase-3 activity compared to cells treated with DMSO vehicle ([6]; 200 μM, 5 h): 15.7 fold
Cc1c(C)c2c(c(C)c1O)CC[C@@](C)(CCC[C@H](C)CCC[C@H](C)CCCC(C)C)O2 [α-tocopherol, reference compound] | – | – | – | – | – | – | – | – | – | – | – | – | – | – | – | – | – | – | – | – | Effect on mitochondrial superoxide production following sigma-2 ligands treatment [13]: strongly decreased; Effect on caspase activation caused by PB221 or PB282 ([6]; Z-DEVD-FMK 1 μM or α-tocopherol given before PB221, PB282 (200 μM, 5 h)): abrogates caspase-3 dependent cleavage; Protection against sigma-2 ligand induced cell death (Panc02 viability) [11]: protected against sigma-2 receptor ligands induced cell death
